Assay results as given in PubChem BioAssay AID330 (DTP/NCI, 2004).
Values joined by “and” are separate entries in the source; they are usually repeats but may differ in a detail not shown here. Equal values may be shown once. Toxic doses and inconclusive results are not listed. How the source made its calls: active means survival T/C of 150% or more; inactive means T/C below 125% in these data.

System: P388 leukemia ip, CD2F1 mice, survival T/C
Experiment: NCI In Vivo Anticancer Drug Screen. Data for tumor model P388 Leukemia (intraperitoneal) in CD2F1 (CDF1) mice
Conditions: endpoint: median survival time, higher = longer survival
How it was run: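 Mice carrying the transplanted tumor received test compound or vehicle. Survival was recorded in each group, and the value is the treated-group measurement divided by that of the vehicle-treated control group.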

[1] = dose: 100.0 mg/kg/injection, schedule: Q01DX009 (ip), vehicle: saline
[2] = dose: 200.0 mg/kg/injection, schedule: Q01DX009 (ip), vehicle: saline
[3] = dose: 50.0 mg/kg/injection, schedule: Q01DX005 (ip), vehicle: saline with Tween-80
[4] = dose: 50.0 mg/kg/injection, schedule: Q01DX009 (ip), vehicle: saline
[5] = dose: 12.5 mg/kg/injection, schedule: Q01DX005 (ip), vehicle: Klucel (hydroxypropylcellulose) (HPC)

Measured: T/C

FC(F)(F)C(Cl)Br (configuration not stated)
inactive: dose: 25.0 mg/kg/injection, schedule: Q04DX003 (ip), vehicle: saline 109 % of control | dose: 50.0 mg/kg/injection, schedule: Q04DX003 (ip), vehicle: saline 109 % of control | [1] 100 % of control | dose: 100.0 mg/kg/injection, schedule: Q04DX003 (ip), vehicle: saline 109 % of control | [2] 90 % of control | dose: 400.0 mg/kg/injection, schedule: Q01DX009 (ip), vehicle: saline 90 % of control

Nc1nnc2nc(C3(c4nc5nnc(N)n5[nH]c4=O)Cc4ccccc4C3=O)c(=O)[nH]n12
inactive: [3] 91 % of control | dose: 100.0 mg/kg/injection, schedule: Q01DX005 (ip), vehicle: saline with Tween-80 100 % of control | dose: 200.0 mg/kg/injection, schedule: Q01DX005 (ip), vehicle: saline with Tween-80 108 % of control

O=C1COc2ccccc2C(=O)C1
inactive: [4] 109 % of control | [1] 101 % of control | [2] 101 % of control

CCOC(=C\C=C\C1=[N+](C)c2ccccc2C1(C)C)/C=C/C=C1/N(C)c2ccccc2C1(C)C
inactive: dose: 1.56 mg/kg/injection, schedule: Q01DX009 (ip), vehicle: saline with Tween-80 117 % of control | dose: 3.13 mg/kg/injection, schedule: Q01DX009 (ip), vehicle: saline with Tween-80 114 % of control

CC(C)(C)c1cc(C(=O)O)c(S)c(C(=O)O)c1
inactive: dose: 50.0 mg/kg/injection, schedule: Q01DX009 (ip), vehicle: Klucel (hydroxypropylcellulose) (HPC) 104 % of control and 109 % of control | dose: 100.0 mg/kg/injection, schedule: Q01DX009 (ip), vehicle: Klucel (hydroxypropylcellulose) (HPC) 102 % of control and 100 % of control | dose: 200.0 mg/kg/injection, schedule: Q01DX009 (ip), vehicle: Klucel (hydroxypropylcellulose) (HPC) 93 % of control

C(=N\Nc1c2c(nc3ccccc13)CCCC2)/c1ccc2c(c1)OCO2
inactive: dose: 3.12 mg/kg/injection, schedule: Q01DX005 (ip), vehicle: Klucel (hydroxypropylcellulose) (HPC) 109 % of control | dose: 6.25 mg/kg/injection, schedule: Q01DX005 (ip), vehicle: Klucel (hydroxypropylcellulose) (HPC) 95 % of control | [5] 90 % of control and 95 % of control

Nc1cc(=O)[nH][nH]1
inactive: dose: 100.0 mg/kg/injection, schedule: Q04DX003 (ip), vehicle: saline with Tween-80 100 % of control | dose: 200.0 mg/kg/injection, schedule: Q04DX003 (ip), vehicle: saline with Tween-80 100 % of control | dose: 400.0 mg/kg/injection, schedule: Q04DX003 (ip), vehicle: saline with Tween-80 109 % of control

COC1=C(N)C(=O)c2nc(-c3nc(C=O)c(C)c(-c4ccc(OC)c(OC)c4O)c3N)ccc2C1=O
inactive: dose: 0.18 mg/kg/injection, schedule: Q01DX009 (ip), vehicle: DMSO 116 % of control | dose: 0.3 mg/kg/injection, schedule: Q01DX009 (ip), vehicle: DMSO 115 % of control | dose: 0.3 mg/kg/injection, schedule: Q01DX009 (ip), vehicle: other 115 % of control | dose: 0.33 mg/kg/injection, schedule: Q01DX009 (ip), vehicle: DMSO 104 % of control | dose: 0.55 mg/kg/injection, schedule: Q01DX009 (ip), vehicle: DMSO 124 % of control | dose: 0.55 mg/kg/injection, schedule: Q01DX009 (ip), vehicle: other 124 % of control | dose: 0.62 mg/kg/injection, schedule: Q01DX009 (ip), vehicle: other 120 % of control | dose: 0.63 mg/kg/injection, schedule: Q01DX009 (ip), vehicle: DMSO 110 % of control | dose: 0.93 mg/kg/injection, schedule: Q01DX009 (ip), vehicle: DMSO 121 % of control | dose: 1.05 mg/kg/injection, schedule: Q01DX009 (ip), vehicle: DMSO 124 % of control | dose: 1.05 mg/kg/injection, schedule: Q01DX009 (ip), vehicle: other 124 % of control | dose: 1.24 mg/kg/injection, schedule: Q01DX009 (ip), vehicle: other 110 % of control | dose: 1.53 mg/kg/injection, schedule: Q01DX009 (ip), vehicle: DMSO 118 % of control | dose: 1.55 mg/kg/injection, schedule: Q01DX009 (ip), vehicle: DMSO 124 % of control | dose: 1.55 mg/kg/injection, schedule: Q01DX009 (ip), vehicle: other 99 % of control and 100 % of control and 124 % of control | dose: 2.05 mg/kg/injection, schedule: Q01DX009 (ip), vehicle: DMSO 110 % of control | dose: 2.05 mg/kg/injection, schedule: Q01DX009 (ip), vehicle: other 110 % of control | dose: 3.03 mg/kg/injection, schedule: Q01DX009 (ip), vehicle: DMSO 84 % of control | dose: 3.1 mg/kg/injection, schedule: Q01DX009 (ip), vehicle: other 121 % of control | dose: 4.96 mg/kg/injection, schedule: Q01DX009 (ip), vehicle: other 92 % of control and 93 % of control | dose: 6.03 mg/kg/injection, schedule: Q01DX009 (ip), vehicle: DMSO 94 % of control | dose: 6.05 mg/kg/injection, schedule: Q01DX009 (ip), vehicle: DMSO 124 % of control | dose: 6.05 mg/kg/injection, schedule: Q01DX009 (ip), vehicle: other 124 % of control | dose: 6.2 mg/kg/injection, schedule: Q01DX009 (ip), vehicle: other 110 % of control | dose: 12.4 mg/kg/injection, schedule: Q01DX009 (ip), vehicle: other 56 % of control

C[N+](C)(C)C.[CH-]1CCCCC1.[CH-]1CCCCC1.[CH-]1CCCCC1.[Cl-].[Cl-].[Sn+4]
inactive: dose: 3.12 mg/kg/injection, schedule: Q01DX005 (ip), vehicle: saline with Tween-80 108 % of control | dose: 6.25 mg/kg/injection, schedule: Q01DX005 (ip), vehicle: saline with Tween-80 101 % of control

O=NNc1ccc(I)cn1
active: dose: 6.25 mg/kg/injection, schedule: Q01DX009 (ip), vehicle: water 170 % of control | dose: 12.5 mg/kg/injection, schedule: Q01DX009 (ip), vehicle: water 173 % of control and 190 % of control

C/C(=N\NC(=S)N1CC(C)OC(C)C1)c1cnccn1 (configuration not stated)
inactive: dose: 12.5 mg/kg/injection, schedule: Q01DX005 (ip), vehicle: saline with Tween-80 107 % of control | dose: 25.0 mg/kg/injection, schedule: Q01DX005 (ip), vehicle: saline with Tween-80 100 % of control | [3] 101 % of control and 97 % of control

c1ccc2c(Cc3csc4ccccc34)csc2c1
inactive: dose: 50.0 mg/kg/injection, schedule: Q01DX005 (ip), vehicle: distilled water + Tween-80 + alcohol 106 % of control | dose: 100.0 mg/kg/injection, schedule: Q01DX005 (ip), vehicle: distilled water + Tween-80 + alcohol 115 % of control | dose: 200.0 mg/kg/injection, schedule: Q01DX005 (ip), vehicle: distilled water + Tween-80 + alcohol 115 % of control

COc1ccc(OC)c2c1nc(CBr)n2C
inactive: dose: 16.25 mg/kg/injection, schedule: Q01DX005 (ip), vehicle: DMSO 104 % of control | dose: 32.5 mg/kg/injection, schedule: Q01DX005 (ip), vehicle: DMSO 93 % of control

N=C1C(O)=CC(=O)C(O)=C1C(=O)O
inactive: dose: 60.0 mg/kg/injection, schedule: Q01DX005 (ip), vehicle: saline 104 % of control | dose: 120.0 mg/kg/injection, schedule: Q01DX005 (ip), vehicle: saline 103 % of control | dose: 240.0 mg/kg/injection, schedule: Q01DX005 (ip), vehicle: saline 101 % of control

Oc1c(Cl)c2nc3ccccc3nc2c2ccccc12
inactive: dose: 15.0 mg/kg/injection, schedule: Q01DX005 (ip), vehicle: saline with Tween-80 100 % of control | dose: 30.0 mg/kg/injection, schedule: Q01DX005 (ip), vehicle: saline with Tween-80 102 % of control | dose: 60.0 mg/kg/injection, schedule: Q01DX005 (ip), vehicle: saline with Tween-80 88 % of control and 98 % of control

Cc1ccc(S(=O)(=O)C(CC(=O)CCN2CCCCC2)c2ccccc2)cc1 (configuration not stated)
inactive: [4] 102 % of control | [1] 96 % of control

C1CCC2C(C1)CCC1COCN12 (configuration not stated)
inactive: [5] 98 % of control | dose: 12.5 mg/kg/injection, schedule: Q01DX005 (ip), vehicle: saline 108 % of control | dose: 25.0 mg/kg/injection, schedule: Q01DX005 (ip), vehicle: Klucel (hydroxypropylcellulose) (HPC) 100 % of control | dose: 25.0 mg/kg/injection, schedule: Q01DX005 (ip), vehicle: saline 100 % of control | dose: 50.0 mg/kg/injection, schedule: Q01DX005 (ip), vehicle: Klucel (hydroxypropylcellulose) (HPC) 105 % of control | dose: 50.0 mg/kg/injection, schedule: Q01DX005 (ip), vehicle: saline 103 % of control and 119 % of control | dose: 100.0 mg/kg/injection, schedule: Q01DX005 (ip), vehicle: Klucel (hydroxypropylcellulose) (HPC) 114 % of control | dose: 100.0 mg/kg/injection, schedule: Q01DX005 (ip), vehicle: saline 118 % of control and 124 % of control | dose: 200.0 mg/kg/injection, schedule: Q01DX005 (ip), vehicle: saline 101 % of control
